Experimental findings from patent publication US9790229B2, “Bruton's tyrosine kinase inhibitors” (priority 2009, dated 2017) are described below.

The target of the test is BTK (Homo sapiens (Human), UniProt Q06187). The test can be described thus: In vitro BTK kinase assay: BTK-POLYGAT-LS ASSAY.
Setting [1] is: read-out: IC50 (10 uM ATP), 10 uM ATP, in vitro Btk kinase assay, Example 41.

Read-outs that look alike come from different tables or passages of the source.

BTK, sequence (Q06187 whole entry): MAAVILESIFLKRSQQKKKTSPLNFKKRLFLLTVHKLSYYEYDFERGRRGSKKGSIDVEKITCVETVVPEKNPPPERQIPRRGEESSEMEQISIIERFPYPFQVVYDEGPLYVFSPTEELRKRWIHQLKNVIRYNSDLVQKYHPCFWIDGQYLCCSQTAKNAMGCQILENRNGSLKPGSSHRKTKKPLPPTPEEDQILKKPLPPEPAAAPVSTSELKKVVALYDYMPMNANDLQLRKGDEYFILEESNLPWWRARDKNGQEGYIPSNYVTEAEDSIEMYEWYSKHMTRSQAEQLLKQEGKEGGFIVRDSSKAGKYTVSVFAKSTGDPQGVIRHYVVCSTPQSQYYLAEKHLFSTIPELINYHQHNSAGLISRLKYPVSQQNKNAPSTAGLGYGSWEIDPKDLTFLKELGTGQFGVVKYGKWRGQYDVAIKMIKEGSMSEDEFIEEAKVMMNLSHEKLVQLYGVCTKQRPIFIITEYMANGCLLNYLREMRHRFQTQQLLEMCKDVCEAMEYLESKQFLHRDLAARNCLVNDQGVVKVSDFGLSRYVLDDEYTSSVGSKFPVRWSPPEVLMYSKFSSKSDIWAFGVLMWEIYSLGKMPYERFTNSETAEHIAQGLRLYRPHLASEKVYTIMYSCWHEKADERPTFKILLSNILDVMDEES

What is called IC50 is the concentration needed to halve the response being measured. In the case of `CN(C)c1ccccc1NC(=O)Nc1cccc(C2CCCN(c3ncnc4[nH]ccc34)C2)c1` (centres unmarked) [Cmpd 34, 1-(3-(1-(7H-pyrrolo[2,3-d]pyrimidin-4-yl)piperidin-3-yl)phenyl)-3-(2-(dimethylamino)phenyl)urea], the IC50 lay within 1 to 10 µM.

For `O=C(Nc1cccc(C2CCCN(c3ncnc4[nH]ccc34)C2)c1)Nc1ccccc1-n1ccnc1` (centres unmarked) [Cmpd 35, 1-(2-(1H-imidazol-1-yl)phenyl)-3-(3-(1-(7H-pyrrolo[2,3-d]pyrimidin-4-yl)piperidin-3-yl)phenyl)urea], the IC50 was 1 to 10 µM. On to `C[C@@H](NC(=O)Nc1cccc(C2CCCN(c3ncnc4[nH]ccc34)C2)c1)c1ccccc1` (stereo partly drawn) [Cmpd 43, 1-(3-(1-(7H-pyrrolo[2,3-d]pyrimidin-4-yl)piperidin-3-yl)phenyl)-3-((R)-1-phenylethyl)urea], for which the 50% inhibitory concentration (IC50) fell in the range of 1 to 10 µM.

`C[C@@H](NC(=O)Nc1cccc(C2CCCN(c3ncnc4[nH]ccc34)C2)c1)C1CCCCC1` (stereo partly drawn) [Cmpd 44, 1-(3-(1-(7H-pyrrolo[2,3-d]pyrimidin-4-yl)piperidin-3-yl)phenyl)-3-((R)-1-cyclohexylethyl)urea] came in with an IC50 of 1 to 10 µM. Regarding `O=C(Nc1cccc(C2CCCN(c3ncnc4[nH]ccc34)C2)c1)Nc1ccccc1C1CCCC1` (centres unmarked) [Cmpd 48, 1-(3-(1-(7H-pyrrolo[2,3-d]pyrimidin-4-yl)piperidin-3-yl)phenyl)-3-(2-cyclopentylphenyl)urea], the concentration for half-maximal inhibition (IC50) lay within 0.1 to 0.999 µM. `O=C(Nc1cccc(C2CCCN(c3ncnc4[nH]ccc34)C2)c1)Nc1c(F)cc(F)cc1N1CCCC1` (centres unmarked) [Cmpd 49, 1-(3-(1-(7H-pyrrolo[2,3-d]pyrimidin-4-yl)piperidin-3-yl)phenyl)-3-(2,4-difluoro-6-(pyrrolidin-1-yl)phenyl)urea]: the IC50 was under 0.1 µM.

Regarding `O=C(Nc1cccc(C2CCCN(c3ncnc4[nH]ccc34)C2)c1)Nc1c(Cl)cccc1N1CCCC1` (centres unmarked) [Cmpd 50, 1-(3-(1-(7H-pyrrolo[2,3-d]pyrimidin-4-yl)piperidin-3-yl)phenyl)-3-(2-chloro-6-(pyrrolidin-1-yl)phenyl)urea], the IC50 under setting [1] is under 0.1 µM. As to `O=C(Nc1cccc(C2CCCN(c3ncnc4[nH]ccc34)C2)c1)Nc1c(F)cccc1N1CCCC1=O` (centres unmarked) [Cmpd 51, 1-(3-(1-(7H-pyrrolo[2,3-d]pyrimidin-4-yl)piperidin-3-yl)phenyl)-3-(2-fluoro-6-(2-oxopyrrolidin-1-yl)phenyl)urea], the IC50 lay in the range of 1 to 10 µM. In the case of `C[C@@H]1CCCN1c1cccc(F)c1NC(=O)Nc1cccc(C2CCCN(c3ncnc4[nH]ccc34)C2)c1` (stereo partly drawn) [Cmpd 52, 1-(3-(1-(7H-pyrrolo[2,3-d]pyrimidin-4-yl)piperidin-3-yl)phenyl)-3-(2-fluoro-6-((R)-2-methylpyrrolidin-1-yl)phenyl)urea], the IC50 under setting [1] was under 0.1 µM. As to `O=C(Nc1cccc(C2CCCN(c3ncnc4[nH]ccc34)C2)c1)N1CCCCC1` (centres unmarked) [Cmpd 53, N-(3-(1-(7H-pyrrolo[2,3-d]pyrimidin-4-yl)piperidin-3-yl)phenyl)piperidine-1-carboxamide], the 50% inhibitory concentration (IC50) lay in the range of 1 to 10 µM. In turn, `Cc1cc(NC(=O)Nc2cccc(C3CCCN(c4ncnc5[nH]ccc45)C3)c2)no1` (centres unmarked) [Cmpd 57, 1-(3-(1-(7H-pyrrolo[2,3-d]pyrimidin-4-yl)piperidin-3-yl)phenyl)-3-(5-methylisoxazol-3-yl)urea] showed an IC50 of 1 to 10 µM.

For `CC(=O)NCc1ccccc1NC(=O)Nc1cccc(C2CCCN(c3ncnc4[nH]ccc34)C2)c1` (centres unmarked) [Cmpd 62, N-(2-(3-(3-(1-(7H-pyrrolo[2,3-d]pyrimidin-4-yl)piperidin-3-yl)phenyl)ureido)benzyl)acetamide], the IC50 was 1 to 10 µM.

`CN(C)Cc1ccccc1NC(=O)Nc1cccc(C2CCCN(c3ncnc4[nH]ccc34)C2)c1` (centres unmarked) [Cmpd 63, 1-(3-(1-(7H-pyrrolo[2,3-d]pyrimidin-4-yl)piperidin-3-yl)phenyl)-3-(2-((dimethylamino)methyl)phenyl)urea]: the 50% inhibitory concentration (IC50) lay within 1 to 10 µM. For the compound `CS(=O)(=O)c1ccccc1NC(=O)Nc1cccc(C2CCCN(c3ncnc4[nH]ccc34)C2)c1` (centres unmarked) [Cmpd 64, 1-(3-(1-(7H-pyrrolo[2,3-d]pyrimidin-4-yl)piperidin-3-yl)phenyl)-3-(2-(methylsulfonyl)phenyl)urea], the 50% inhibitory concentration (IC50) lay in the range of 1 to 10 µM.

Turning to `N#Cc1ccccc1NC(=O)Nc1cccc(C2CCCN(c3ncnc4[nH]ccc34)C2)c1` (centres unmarked) [Cmpd 65, 1-(3-(1-(7H-pyrrolo[2,3-d]pyrimidin-4-yl)piperidin-3-yl)phenyl)-3-(2-cyanophenyl)urea], the half-maximal inhibitory concentration (IC50) under setting [1] was over 10 µM. For the compound `Cc1cc(NC(=O)Nc2cccc(C3CCCN(c4ncnc5[nH]ccc45)C3)c2)on1` (centres unmarked) [Cmpd 66, 1-(3-(1-(7H-pyrrolo[2,3-d]pyrimidin-4-yl)piperidin-3-yl)phenyl)-3-(3-methylisoxazol-5-yl)urea], the IC50 lay in the range of 1 to 10 µM. For `S=C(Nc1ccccc1)Nc1cccc(C2CCCN(c3ncnc4[nH]ccc34)C2)c1` (centres unmarked) [Cmpd 67, 1-(3-(1-(7H-pyrrolo[2,3-d]pyrimidin-4-yl)piperidin-3-yl)phenyl)-3-phenylthiourea], the IC50 under setting [1] was over 10 µM. Regarding `O=S(=O)(Nc1cccc(C2CCCN(c3ncnc4[nH]ccc34)C2)c1)c1ccccc1` (centres unmarked) [Cmpd 68, N-(3-(1-(7H-pyrrolo[2,3-d]pyrimidin-4-yl)piperidin-3-yl)phenyl)benzenesulfonamide], the half-maximal inhibitory concentration (IC50) under setting [1] was over 10 µM.

On to `O=c1c(Nc2ccccc2)c(Nc2cccc(C3CCCN(c4ncnc5[nH]ccc45)C3)c2)c1=O` (centres unmarked) [Cmpd 69, 3-(3-(1-(7H-pyrrolo[2,3-d]pyrimidin-4-yl)piperidin-3-yl)phenylamino)-4-(phenylamino)cyclobut-3-ene-1,2-dione], for which, under setting [1], the concentration for half-maximal inhibition (IC50) was over 10 µM. In the case of `O=c1c(Nc2ccc(Cl)cc2)c(Nc2cccc(C3CCCN(c4ncnc5[nH]ccc45)C3)c2)c1=O` (centres unmarked) [Cmpd 70, 3-(3-(1-(7H-pyrrolo[2,3-d]pyrimidin-4-yl)piperidin-3-yl)phenylamino)-4-(4-chlorophenylamino)cyclobut-3-ene-1,2-dione], the half-inhibitory concentration (IC50) under setting [1] was over 10 µM. As to `O=c1c(Nc2cccc(Cl)c2)c(Nc2cccc(C3CCCN(c4ncnc5[nH]ccc45)C3)c2)c1=O` (centres unmarked) [Cmpd 71, 3-(3-(1-(7H-pyrrolo[2,3-d]pyrimidin-4-yl)piperidin-3-yl)phenylamino)-4-(3-chlorophenylamino)cyclobut-3-ene-1,2-dione], the IC50 under setting [1] was over 10 µM.

On to `CNc1c(Nc2cccc(C3CCCN(c4ncnc5[nH]ccc45)C3)c2)c(=O)c1=O` (centres unmarked) [Cmpd 72, 3-(3-(1-(7H-pyrrolo[2,3-d]pyrimidin-4-yl)piperidin-3-yl)phenylamino)-4-(methylamino)cyclobut-3-ene-1,2-dione], for which, under setting [1], the 50% inhibitory concentration (IC50) was over 10 µM. `CC(C)(C)Nc1c(Nc2cccc(C3CCCN(c4ncnc5[nH]ccc45)C3)c2)c(=O)c1=O` (centres unmarked) [Cmpd 73, 3-(3-(1-(7H-pyrrolo[2,3-d]pyrimidin-4-yl)piperidin-3-yl)phenylamino)-4-(tert-butylamino)cyclobut-3-ene-1,2-dione]: the IC50 under setting [1] is over 10 µM. For `N#C/N=C(\Nc1cccc(C2CCCN(c3ncnc4[nH]ccc34)C2)c1)NC1CCCCC1` (centres unmarked) [Cmpd 75], the half-inhibitory concentration (IC50) lay in the range of 1 to 10 µM. `N#C/N=C(/NCC1CCCCC1)Nc1cccc(C2CCCN(c3ncnc4[nH]ccc34)C2)c1` (centres unmarked) [Cmpd 76, (E)-1-(3-(1-(7H-pyrrolo[2,3-d]pyrimidin-4-yl)piperidin-3-yl)phenyl)-2-cyano-3-(cyclohexylmethyl)guanidine]: the concentration for half-maximal inhibition (IC50) under setting [1] was over 10 µM. For `CN/C(=N/C#N)Nc1cccc(C2CCCN(c3ncnc4[nH]ccc34)C2)c1` (centres unmarked) [Cmpd 77, (E)-1-(3-(1-(7H-pyrrolo[2,3-d]pyrimidin-4-yl)piperidin-3-yl)phenyl)-2-cyano-3-methylguanidine], under setting [1], the IC50 is over 10 µM. Same read-out and setting: the value for `CC(C)(C)N/C(=N/C#N)Nc1cccc(C2CCCN(c3ncnc4[nH]ccc34)C2)c1` (centres unmarked) [Cmpd 78, (Z)-1-(3-(1-(7H-pyrrolo[2,3-d]pyrimidin-4-yl)piperidin-3-yl)phenyl)-3-tert-butyl-2-cyanoguanidine] was over 10 µM; that for `Cc1ccc(NC(=O)Nc2ccccc2)cc1C1CCCN(c2ncnc3[nH]ccc23)C1` (centres unmarked) [Cmpd 79, 1-(3-(1-(7H-pyrrolo[2,3-d]pyrimidin-4-yl)piperidin-3-yl)-4-methylphenyl)-3-phenylurea] was over 10 µM; that for `Cc1ccc(NC(=O)c2ccccc2)cc1C1CCCN(c2ncnc3[nH]ccc23)C1` (centres unmarked) [Cmpd 80, N-(3-(1-(7H-pyrrolo[2,3-d]pyrimidin-4-yl)piperidin-3-yl)-4-methylphenyl)benzamide] was over 10 µM. Still for that read-out and setting: the value for `Cc1ccc(C2CCCN(c3ncnc4[nH]ccc34)C2)cc1NC(=O)Nc1ccccc1` (centres unmarked) [Cmpd 81, 1-(5-(1-(7H-pyrrolo[2,3-d]pyrimidin-4-yl)piperidin-3-yl)-2-methylphenyl)-3-phenylurea] was over 10 µM; that for `Cc1ccc(C2CCCN(c3ncnc4[nH]ccc34)C2)cc1NC(=O)c1ccccc1` (centres unmarked) [Cmpd 82, N-(5-(1-(7H-pyrrolo[2,3-d]pyrimidin-4-yl)piperidin-3-yl)-2-methylphenyl)benzamide] was over 10 µM.

In the case of `O=C(Nc1ccccc1)Nc1cc(C2CCCN(c3ncnc4[nH]ccc34)C2)cc(C(F)(F)F)c1` (centres unmarked) [Cmpd 83, 1-(3-(1-(7H-pyrrolo[2,3-d]pyrimidin-4-yl)piperidin-3-yl)-5-(trifluoromethyl)phenyl)-3-phenylurea], the half-maximal inhibitory concentration (IC50) under setting [1] was over 10 µM.

Turning to `O=C(Nc1cc(C2CCCN(c3ncnc4[nH]ccc34)C2)cc(C(F)(F)F)c1)c1ccccc1` (centres unmarked) [Cmpd 84, N-(3-(1-(7H-pyrrolo[2,3-d]pyrimidin-4-yl)piperidin-3-yl)-5-(trifluoromethyl)phenyl)benzamide], the IC50 under setting [1] is over 10 µM. In turn, `O=C(Nc1cc(C2CCCN(c3ncnc4[nH]ccc34)C2)ccc1OC(F)(F)F)c1ccccc1` (centres unmarked) [Cmpd 85, N-(5-(1-(7H-pyrrolo[2,3-d]pyrimidin-4-yl)piperidin-3-yl)-2-(trifluoromethoxy)phenyl)benzamide] displayed an IC50 of 0.1 to 0.999 µM. Take `O=C(Nc1cc(C2CCCN(c3ncnc4[nH]ccc34)C2)ccc1OC(F)(F)F)c1ccccc1Cl` (centres unmarked) [Cmpd 86, N-(5-(1-(7H-pyrrolo[2,3-d]pyrimidin-4-yl)piperidin-3-yl)-2-(trifluoromethoxy)phenyl)-2-chlorobenzamide]: the IC50 lay within 0.1 to 0.999 µM.
